From ChEMBL document CHEMBL4219212, “Synthesis of 3-(3-hydroxyphenyl)pyrrolidine dopamine D3 receptor ligands with extended functionality for probing the secondary binding pocket” (Bioorg Med Chem Lett, 2018)

Key:
[1] = target: T1, 5-hydroxytryptamine receptor 1A (Homo sapiens, UniProt P08908); test: Displacement of [3H]-Way100635 from 5HT1A receptor (unknown origin) expressed in stable CHO cell membranes by radioligand binding assay
T1 sequence (P08908 whole entry): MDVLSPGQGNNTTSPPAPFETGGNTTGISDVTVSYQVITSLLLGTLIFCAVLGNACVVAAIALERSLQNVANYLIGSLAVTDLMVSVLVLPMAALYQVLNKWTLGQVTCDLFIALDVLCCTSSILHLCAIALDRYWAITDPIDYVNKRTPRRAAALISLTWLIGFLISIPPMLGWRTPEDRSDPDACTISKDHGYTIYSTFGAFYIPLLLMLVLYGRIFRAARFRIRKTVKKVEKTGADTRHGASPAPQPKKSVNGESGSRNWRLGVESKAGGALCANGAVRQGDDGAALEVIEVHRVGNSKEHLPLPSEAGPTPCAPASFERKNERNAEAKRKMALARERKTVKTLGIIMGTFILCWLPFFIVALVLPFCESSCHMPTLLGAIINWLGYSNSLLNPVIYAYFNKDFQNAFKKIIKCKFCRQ

[2] = target: D(1A) dopamine receptor (Homo sapiens, UniProt P21728); test: Displacement of [3H]SCH23390 from human dopamine D1 receptor expressed in HEK293T cell membranes by radioligand binding assay
D(1A) dopamine receptor, sequence (P21728 whole entry): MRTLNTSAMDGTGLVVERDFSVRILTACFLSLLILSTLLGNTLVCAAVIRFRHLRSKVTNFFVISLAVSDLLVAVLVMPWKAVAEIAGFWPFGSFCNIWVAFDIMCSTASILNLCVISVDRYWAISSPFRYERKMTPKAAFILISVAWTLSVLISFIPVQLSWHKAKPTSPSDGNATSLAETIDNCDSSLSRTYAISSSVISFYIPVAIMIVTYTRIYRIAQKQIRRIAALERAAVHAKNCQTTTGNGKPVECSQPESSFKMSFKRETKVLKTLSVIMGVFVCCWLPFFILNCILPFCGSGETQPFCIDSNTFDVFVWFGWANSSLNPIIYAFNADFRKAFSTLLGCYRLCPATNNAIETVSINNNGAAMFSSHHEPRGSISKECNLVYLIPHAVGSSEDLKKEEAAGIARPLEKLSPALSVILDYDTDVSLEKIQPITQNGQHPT

[3] = target: D(2) dopamine receptor (Homo sapiens, UniProt P14416); test: Binding affinity to human dopamine D2 receptor
D(2) dopamine receptor, sequence (P14416 whole entry): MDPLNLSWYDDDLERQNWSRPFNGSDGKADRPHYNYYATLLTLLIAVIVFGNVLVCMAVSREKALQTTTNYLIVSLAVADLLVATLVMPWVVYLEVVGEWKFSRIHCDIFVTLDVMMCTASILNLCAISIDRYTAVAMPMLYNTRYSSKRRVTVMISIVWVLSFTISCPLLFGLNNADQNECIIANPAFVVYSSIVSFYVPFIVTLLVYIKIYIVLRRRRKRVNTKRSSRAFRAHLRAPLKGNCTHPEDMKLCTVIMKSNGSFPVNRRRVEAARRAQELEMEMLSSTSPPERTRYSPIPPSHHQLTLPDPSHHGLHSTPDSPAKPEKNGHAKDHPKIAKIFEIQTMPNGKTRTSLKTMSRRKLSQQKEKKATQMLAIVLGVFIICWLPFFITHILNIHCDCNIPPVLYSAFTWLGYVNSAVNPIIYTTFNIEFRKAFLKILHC

[4] = target: D(3) dopamine receptor (Homo sapiens, UniProt P35462); test: Binding affinity to human dopamine D3 receptor
D(3) dopamine receptor, sequence (P35462 whole entry): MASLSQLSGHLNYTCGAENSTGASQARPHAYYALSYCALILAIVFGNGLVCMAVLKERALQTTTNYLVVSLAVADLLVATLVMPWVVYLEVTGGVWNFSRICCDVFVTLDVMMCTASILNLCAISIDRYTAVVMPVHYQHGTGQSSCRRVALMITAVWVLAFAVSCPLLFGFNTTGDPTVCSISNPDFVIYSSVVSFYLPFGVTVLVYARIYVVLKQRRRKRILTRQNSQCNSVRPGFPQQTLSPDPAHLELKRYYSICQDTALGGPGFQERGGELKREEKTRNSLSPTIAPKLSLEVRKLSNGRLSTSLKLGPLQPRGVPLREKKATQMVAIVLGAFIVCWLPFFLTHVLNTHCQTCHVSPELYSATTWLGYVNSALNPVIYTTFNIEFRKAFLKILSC

| Structure (SMILES) | Ki [1] | Ki [2] | Ki [3] | Ki [4] |
| --- | --- | --- | --- | --- |
| CCCCCCCCCN1CCC(c2cccc(O)c2)C1 (single isomer, unassigned; (+)) | 115 nM | > 10000 nM |  |  |
| CN(C)c1ccc(C(=O)NCCCCN2CCC(c3cccc(O)c3)C2)cc1 (single isomer, unassigned; (+)) |  | > 10000 nM |  |  |
| CCCCCCCCCCN1CCC(c2cccc(O)c2)C1 (stereo not drawn) | 12 nM | 128 nM |  |  |
| CN(C)c1ccc(C(=O)NCCCCN2CCC(c3cccc(O)c3)C2)cc1 (single isomer, unassigned; (-)) |  | 4590 nM |  |  |
| CCCCCCN1CCC(c2cccc(O)c2)C1 (stereo not drawn) | 272 nM | 1280 nM |  |  |
| CCCCCCCCCN1CCC(c2cccc(O)c2)C1 (racemic) | 15 nM | 174 nM |  |  |
| CN(C)c1ccc(C(=O)NCCCCN2CCC(c3cccc(O)c3)C2)cc1 (racemic) |  | 831 nM |  |  |
| CCCCCN1CCC(c2cccc(O)c2)C1 (stereo not drawn) | 326 nM | 542 nM |  |  |
| CCCCCCCCN1CCC(c2cccc(O)c2)C1 (stereo not drawn) | 9.4 nM | 170 nM |  |  |
| CCCCCCCCCN1CCC(c2cccc(O)c2)C1 (single isomer, unassigned; (-)) | 48 nM | 181 nM |  |  |
| CCCCCCCN1CCC(c2cccc(O)c2)C1 (stereo not drawn) | 19 nM | 597 nM |  |  |
| CCCN1CCC(c2cccc(O)c2)C1 (stereo not drawn) |  |  | 68 nM | 52 nM |
| CCCCN1CCC(c2cccc(O)c2)C1 (stereo not drawn) | 1810 nM | 861 nM |  |  |
